Laboratory results published in patent US12037344B2, “NLRP3 modulators” (INNATE TUMOR IMMUNITY, INC., priority 2018, dated 2024).
Where two headings read alike, the source gives them in different places.

Assays:
TLR7 = molecular target: T1, TLR7 (Homo sapiens, UniProt Q9NYK1); assay: In vitro human TLR7 binding reporter assay (HEK-Blue, NF-kB/AP1-inducible SEAP); format: cell-based; details: read-out: TLR7 Agonist EC50
T1 construct: human HEK-Blue cells co-expressing a TLR7 or TLR8 gene
T1 sequence (Q9NYK1 27-1049): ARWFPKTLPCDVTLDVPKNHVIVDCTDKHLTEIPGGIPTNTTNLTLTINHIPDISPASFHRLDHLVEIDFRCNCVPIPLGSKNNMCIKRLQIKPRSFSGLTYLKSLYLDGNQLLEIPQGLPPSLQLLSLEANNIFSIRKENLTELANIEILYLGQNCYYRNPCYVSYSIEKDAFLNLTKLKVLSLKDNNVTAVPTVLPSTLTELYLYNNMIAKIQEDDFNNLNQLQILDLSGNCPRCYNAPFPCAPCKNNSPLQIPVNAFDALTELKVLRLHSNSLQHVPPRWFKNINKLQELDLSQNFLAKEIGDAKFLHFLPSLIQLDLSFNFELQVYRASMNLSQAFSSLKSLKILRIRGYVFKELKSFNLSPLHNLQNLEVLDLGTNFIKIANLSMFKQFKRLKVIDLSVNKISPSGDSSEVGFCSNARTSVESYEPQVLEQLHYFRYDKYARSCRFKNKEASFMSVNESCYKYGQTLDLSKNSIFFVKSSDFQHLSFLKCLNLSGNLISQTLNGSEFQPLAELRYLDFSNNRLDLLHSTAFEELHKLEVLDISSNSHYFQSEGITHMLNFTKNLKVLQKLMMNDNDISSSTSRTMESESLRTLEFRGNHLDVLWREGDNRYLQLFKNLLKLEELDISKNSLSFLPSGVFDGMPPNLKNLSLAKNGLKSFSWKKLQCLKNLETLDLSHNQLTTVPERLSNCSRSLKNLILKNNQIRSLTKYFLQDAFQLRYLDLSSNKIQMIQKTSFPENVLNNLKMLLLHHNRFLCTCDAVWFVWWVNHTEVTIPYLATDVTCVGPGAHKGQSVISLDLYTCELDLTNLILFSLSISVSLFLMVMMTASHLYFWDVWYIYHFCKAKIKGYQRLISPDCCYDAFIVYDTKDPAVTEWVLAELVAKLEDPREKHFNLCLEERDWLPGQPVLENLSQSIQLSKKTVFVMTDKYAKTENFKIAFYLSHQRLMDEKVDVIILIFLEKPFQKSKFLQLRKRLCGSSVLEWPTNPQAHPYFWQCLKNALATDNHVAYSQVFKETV
Method in brief: (§1)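 HEK-Blue cells expressing human TLR7 or TLR8 with NF-kB/AP1-inducible SEAP reporter, plated 24 h, then compound-treated 18 h at 37° C, 5% CO2. EC50 normalized to 100% Ymax set by 50 μM reference standard.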

THP-1 cells = assay: Measurement of IL-1β production, hTRF protocol (second alternative procedure), THP-1 cells; format: cell-based, human; details: Homo sapiens, THP-1, IL-1β production, read-out: NLRP3 hILIB EC50
Method in brief: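 Compounds, dilution series starting at a final 10 μM, were incubated 2 hours at 37° C with PMA-differentiated THP-1 cells (50 ng/ml overnight; 50,000 cells/well, 2% FBS RPMI). Released IL-1β quantified in supernatant by hTRF kit with 1:40 antibody dilution, 4° C overnight, 665/615 nm ratio.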

TLR8 = molecular target: T2, TLR8 (Homo sapiens, UniProt Q9NR97); assay: In vitro human TLR8 binding reporter assay (HEK-Blue, NF-kB/AP1-inducible SEAP); format: cell-based; details: read-out: TLR8 Agonist EC50
T2 construct: human HEK-Blue cells co-expressing a TLR7 or TLR8 gene
T2 sequence (Q9NR97 27-1041): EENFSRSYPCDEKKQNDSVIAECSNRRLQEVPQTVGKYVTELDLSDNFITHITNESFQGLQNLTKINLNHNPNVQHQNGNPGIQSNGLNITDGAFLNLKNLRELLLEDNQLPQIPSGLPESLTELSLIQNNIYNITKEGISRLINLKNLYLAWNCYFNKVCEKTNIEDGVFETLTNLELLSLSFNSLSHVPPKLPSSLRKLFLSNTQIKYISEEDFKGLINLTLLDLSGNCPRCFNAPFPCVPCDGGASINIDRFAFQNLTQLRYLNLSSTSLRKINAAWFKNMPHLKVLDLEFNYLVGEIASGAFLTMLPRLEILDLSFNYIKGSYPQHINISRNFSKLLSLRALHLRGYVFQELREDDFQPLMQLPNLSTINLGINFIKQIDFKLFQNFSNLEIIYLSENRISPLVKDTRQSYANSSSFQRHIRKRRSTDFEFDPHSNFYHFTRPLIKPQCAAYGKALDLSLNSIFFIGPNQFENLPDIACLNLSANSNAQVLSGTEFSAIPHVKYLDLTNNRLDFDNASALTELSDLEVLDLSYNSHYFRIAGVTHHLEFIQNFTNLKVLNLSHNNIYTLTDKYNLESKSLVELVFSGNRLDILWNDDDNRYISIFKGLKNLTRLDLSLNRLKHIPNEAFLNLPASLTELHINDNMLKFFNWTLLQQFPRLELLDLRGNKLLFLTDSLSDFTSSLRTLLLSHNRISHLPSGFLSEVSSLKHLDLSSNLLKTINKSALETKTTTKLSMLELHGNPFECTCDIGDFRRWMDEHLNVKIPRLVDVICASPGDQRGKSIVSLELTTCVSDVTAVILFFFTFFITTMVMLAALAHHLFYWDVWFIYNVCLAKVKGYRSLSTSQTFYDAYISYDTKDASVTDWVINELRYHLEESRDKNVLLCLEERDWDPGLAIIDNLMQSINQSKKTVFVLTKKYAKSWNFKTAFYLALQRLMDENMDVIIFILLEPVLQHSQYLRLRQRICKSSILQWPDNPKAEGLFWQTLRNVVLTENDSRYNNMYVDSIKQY
Method in brief: as §1

| SMILES | EC50 (TLR7; activity range class) | EC50 (THP-1 cells; human) | EC50 (TLR8; activity range class) | EC50 (TLR7; activity range) | EC50 (THP-1 cells; human cells) | EC50 (TLR8; activity range) |
| --- | --- | --- | --- | --- | --- | --- |
| Nc1nc2cc(-c3cc[nH]n3)ccc2c2nn(CCc3c[nH]cn3)cc12 [Example 361] | > 100 µM | 0.19 µM | > 100 µM | – | – | – |
| CCCCn1cc2c(n1)c(N)nc1cc(-c3ccn[nH]3)ccc12 [Example 186] | 1 to 20 µM | 0.21 µM | > 100 µM | – | – | – |
| Nc1nc2cc(-c3ccn[nH]3)ccc2c2nn(CCNS(=O)(=O)N3CCOCC3)cc12 [Example 593] | – | – | – | > 100 µM | 28.1 µM | > 100 µM |
| CCNC(=O)Cn1cc2c(n1)c(N)nc1cc(-c3cc[nH]n3)ccc12 [Example 24] | > 100 µM | 2.9 µM | > 100 µM | – | – | – |
| COCCNC(=O)Cn1cc2c(n1)c(N)nc1cc(-c3cc[nH]n3)ccc12 [Example 536] | – | – | – | > 100 µM | 3.58 µM | > 100 µM |
| COC[C@H](O)Cn1cc2c(N)nc3cc(-c4cc[nH]n4)ccc3c2n1 [Example 372] | > 100 µM | 0.88 µM | > 100 µM | – | – | – |
| CCOCCn1cc2c(n1)c(N)nc1cc(-n3cccn3)ccc12 [Example 10, 2-(2-ethoxyethyl)-7-(1H-pyrazol-1-yl)-2H-pyrazolo[3,4-c]quinolin-4-amine] | 20 to 100 µM | 1 µM | 1 to 20 µM | – | – | – |
| Nc1nc2cc(-c3cc[nH]n3)ccc2c2[nH]c(CNCC(F)(F)F)cc12 [Example 497] | – | – | – | > 100 µM | 0.05 µM | > 100 µM |
| Nc1nc2cc(-c3cc[nH]n3)ccc2c2cn(CCNC(=O)c3cscn3)nc12 [Example 95] | > 100 µM | 0.09 µM | > 100 µM | – | – | – |
| Nc1nc2cc(-c3ccn[nH]3)ccc2c2sc(CCCO)nc12 [Example 142, 3-[4-amino-7-(1H-pyrazol-3-yl)-[1,3]thiazolo[4,5-c]quinolin-2-yl]propan-1-ol] | > 100 µM | 1.5 µM | 20 to 100 µM | – | – | – |
| Nc1nc2cc(-c3cc[nH]n3)ccc2c2n[nH]cc12 [Example 457, 7-(1H-pyrazol-3-yl)-2H-pyrazolo[4,3-c]quinolin-4-amine] | – | – | – | > 100 µM | 0.16 µM | > 100 µM |
| Nc1nc2cc(-c3ccn[nH]3)ccc2c2nn(CC3COCCN3)cc12 (stereo not drawn) [Example 255] | > 100 µM | 10.9 µM | > 100 µM | – | – | – |
| Nc1nc2cc(-c3cc[nH]n3)ccc2c2nn(CCOCCO)cc12 [Example 309] | > 100 µM | 0.75 µM | > 100 µM | – | – | – |
| COc1ccc(C(=O)NCCn2cc3c(n2)c(N)nc2cc(-c4cc[nH]n4)ccc23)nc1 [Example 59] | > 100 µM | 0.47 µM | > 100 µM | – | – | – |
| Nc1nc2cc(-c3cc[nH]n3)ccc2c2[nH]c(CN3[C@@H]4CC[C@H]3COC4)cc12 [Example 474] | – | – | – | > 100 µM | 0.45 µM | > 100 µM |
| COC1CN(C(=O)Cn2cc3c(n2)c(N)nc2cc(-c4cc[nH]n4)ccc23)C1 [Example 546] | – | – | – | > 100 µM | 3.27 µM | > 100 µM |
| Nc1nc2cc(-c3cc[nH]n3)ccc2c2cn(CCCn3ccccc3=O)nc12 [Example 4, 1-{3-[4-amino-7-(1H-pyrazol-3-yl)-2H-pyrazolo[3,4-c]quinolin-2-yl]propyl}-1,2-dihydropyridin-2-one] | > 100 µM | 16.8 µM | > 100 µM | – | – | – |
| Nc1nc2cc(-c3cc[nH]n3)ccc2c2nn(CCC(=O)N3CCCC3)cc12 [Example 508] | – | – | – | > 100 µM | 7.37 µM | > 100 µM |

Other lines, results leading:

| EC50 (TLR7; activity range class) | EC50 (THP-1 cells; human) | EC50 (TLR8; activity range class) | EC50 (TLR7; activity range) | EC50 (THP-1 cells; human cells) | EC50 (TLR8; activity range) | SMILES |
| --- | --- | --- | --- | --- | --- | --- |
| 20 to 100 µM | 3.88 µM | 20 to 100 µM | – | – | – | CCNC(=O)Cn1cc2c(n1)c(N)nc1cc(-n3cccn3)ccc12 [Example 19] |
| – | – | – | > 100 µM | 4.09 µM | > 100 µM | Nc1nc2cc(-c3cc[nH]n3)ccc2c2nn(CCC(=O)NCC(F)F)cc12 [Example 515] |
| – | – | – | > 100 µM | 10.4 µM | > 100 µM | CC(C)NC(=O)CC(C)n1cc2c(N)nc3cc(-c4cc[nH]n4)ccc3c2n1 (stereo not drawn) [Example 615] |
| > 100 µM | 1.39 µM | > 100 µM | – | – | – | Nc1nc2cc(-c3cc[nH]n3)ccc2c2cn(CCC(=O)Nc3ccccc3)nc12 [Example 23] |
| > 100 µM | 0.6 µM | > 100 µM | – | – | – | CC(C)(Cn1cc2c(N)nc3cc(-c4cc[nH]n4)ccc3c2n1)NC(=O)c1ccc(F)cn1 [Example 293] |
| > 100 µM | 0.75 µM | > 100 µM | – | – | – | Nc1nc2cc(-c3ccn[nH]3)ccc2c2nn(CC3CCCN3)cc12 (stereo not drawn) [Example 278] |
| > 100 µM | 0.15 µM | > 100 µM | – | – | – | Nc1nc2cc(-c3cc[nH]n3)ccc2c2cn(Cc3cccnc3)nc12 [Example 167] |
| – | – | – | > 100 µM | 1.81 µM | > 100 µM | CC(O)Cn1ncc2c(N)nc3cc(-c4cc[nH]n4)ccc3c21 (stereo not drawn) [Example 428] |
| > 100 µM | 0.21 µM | > 100 µM | – | – | – | Nc1nc2cc(-c3cc[nH]n3)ccc2c2nn(CC3CC3(F)F)cc12 (stereo not drawn) [Example 386] |
| > 100 µM | 1.38 µM | > 100 µM | – | – | – | Nc1nc2cc(-c3cc[nH]n3)ccc2c2nn(CCN3CCCC3=O)cc12 [Example 383] |
| > 100 µM | 1.57 µM | > 100 µM | – | – | – | Nc1nc2cc(-c3cc[nH]n3)ccc2c2nn(C3COCC3O)cc12 (single isomer, unassigned) [Example 324] |
| 20 to 100 µM | 0.4 µM | 20 to 100 µM | – | – | – | Nc1nc2cc(-c3cc[nH]n3)ccc2c2cn(CCNC(=O)c3ncc(Cl)cc3F)nc12 [Example 85] |
| – | – | – | > 100 µM | 0.09 µM | > 100 µM | Nc1nc2cc(-c3cc[nH]n3)ccc2c2[nH]c(CNCC(F)F)cc12 [Example 520] |
| > 100 µM | 0.7 µM | > 100 µM | – | – | – | CN(C)CCc1cc2c(N)nc3cc(-c4ccn[nH]4)ccc3c2[nH]1 [Example 153, 2-[2-(dimethylamino)ethyl]-7-(1H-pyrazol-5-yl)-1H-pyrrolo[3,2-c]quinolin-4-amine] |
| > 100 µM | 0.98 µM | > 100 µM | – | – | – | Nc1nc2cc(-c3ccn[nH]3)ccc2c2sc(CCNC(=O)c3ccccc3)nc12 [Example 135, N-(2-(4-amino-7-(1H-pyrazol-5-yl)thiazolo[4,5-c]quinolin-2-yl)ethyl) benzamide] |
